{"source": "patent US9623031B2", "about": "“Compositions, methods and kits for treating cancer” (priority 2011, dated 2017)", "key": {"[1]": {"test_system": "Friend virus (FV)-induced erythroleukemia", "assay": "FV-induced erythroleukemia in FV-infected mice, intraperitoneal treatment", "type": "in vivo, mouse", "excerpt": "FV-induced erythroleukemia and production of FV leukemia stem cells (FV-LSCs): BALB/c mice were infected with FV as previously described (Subramanian A et al., J Virol. 2008; 82:382-393; Harandi O F et al., J Clin Invest. 2010; 120:4507-4519). On day 14 after infection, spleens were isolated and a single cell suspension of spleen cells was generated. The cells were filtered through a 70 μm sterile filter and flow-through cells were resuspended in RBC lysis buffer followed by centrifugation. Leukemia stem cells were isolated by FACS. Spleen cells were labeled with anti-Kit, Sca1 (BioLegend, San Diego, Calif.) and M34 antibodies. M34 is a monoclonal antibody that recognizes the envelope protein of SFFV (Chesebro B et al., Virology. 1981; 112:131-144) and was used as previously described (Subramanian A et al., J Virol. 2008; 82:382-393). As indicated M34^+Kit^+Sca1^+ cells were cultured in Methocult media (Stem Cell Technologies Vancouver BC) M3334 supplemented with 200 ng/ml Sonic Hedgehog (Shh), 15 ng/ml bone morphogenetic protein-4 (BMP4) (both from R&D Systems Minneapolis, Minn.), and 50 ng/ml stem cell factor (SCF; Peprotech). For CFU-FV assays, cells were plated in methylcellulose media containing fetal calf serum, but lacking added growth factors as previously described (Mager D L et al., Proc Natl Acad Sci USA. 1981; 78:1703-1707).\nComplete blood counts of mice treated with Δ^12-PGJ3 (0.05 mg/kg) were examined. There is no difference in treated mice and untransplanted control mice in terms of white blood cell counts, red blood cell counts or platelet counts. Changes in hematological parameters in FV-infected mice upon treatment with CyPGs were examined. FV-infected Balb/c mice were treated with Δ^12-PGJ3 (0.05 mg/kg) intraperitoneally for 7 d following which the mice were sacrificed and hematological parameters were analyzed on an Advia blood analyzer. FV-infected Δ^12-PGJ3 treated mice were compared to infected vehicle controls. N=5 per group, all data are means±s.e.m. *P<0.05. 3% w/v hydroxypropyl-3-cyclodextrin was used as a vehicle in in vivo experiments. Spleen sizes of FV-infected mice that were treated with either vehicle, 9,10-dihydro-15d-PGJ2 (0.05 mg/kg), or 15d-PGJ2 (0.05 mg/kg) were examined; N=3 pre group. Hematological parameters of Balb/c uninfected, infected, and 15d-PGJ2 treated mice were examined. N=5 per group. All data were means±s.e.m. *P<0.05.\nFV-LSC were targeted by 15d-PGJ2 in the spleen of FV-infected mice. FV-infected mice were treated with 15d-PGJ2 or 9,10-dihydro-15d-PGJ2 at 0.05 mg/kg for 7 d. The splenic LSC (M34^+Sca1^+Kit^+) cells were analyzed by flow cytometry on day 14 post infection. […] Uninfected and infected vehicle controls were used for comparison. N=3; *P<0.05. […] The colonies were counted 10-14 days after plating. N=3 mice per group, *p<0.05."}, "[2]": {"test_system": "BCR-ABL^+LSC (Kit^+Sca1^+Lin^−GFP^+)", "assay": "Apoptosis of BCR-ABL+ LSCs treated ex vivo (annexin V, flow cytometry)", "type": "cell-based, mouse", "conditions": "for apoptosis of Sca1+GFP+Kit+ BCR-ABL+LSC from spleen: 25-1000 nM, 36 h", "procedure": "Apoptosis. Apoptosis of LSCs was performed using annexin V as described below in Supplementary Information and Methods.\nApoptosis. The LSCs were diluted in DMEM, resuspended using a 16-gauge needle, and collected by centrifugation. 1×10^5 cells were resuspended in 200 μl of binding buffer (0.1 M HEPES with 1.4 M NaCl, 25 mM CaCl2, pH 7.4). Annexin V FITC (BD Biosciences) was incubated with cells for 15 min on ice followed by flow cytometric analysis.\nThe ability of CyPGs derived from arachidonic acid (2 series PGs) to induce apoptosis was tested in cultures of LSCs from FV infected mice and in the murine CML model. […] 15d-PGJ2 is known as a PPAPγ agonist. […] In FIG. 7C Δ^12-PGJ3, 15d-PGJ2 or 9,10-dihydro-15d-PGJ2 are tested for their ability to induce apoptosis in a murine CML model. […] The cells were stained with annexin V-FITC and analyzed by flow cytometry. Representative of N=4. […] Inset: Effect of rosiglitazone on the apoptosis of LSC. Rosiglitazone (0.1-2.0 μM) was incubated with LSC in the culture media for 36 h as described earlier and the cells were subjected to annexin-V staining followed by flow cytometry. […] LSC were treated ex vivo with indicated concentrations of each compound for 36 h.\nFollowing 36 h of incubation, apoptotic cells were quantified by annexin V staining. […] In a related study to address if Δ^12-PGJ3 treatment would cause any degranulation of granulocytes, a rat basophilic cell line ([…]) was treated with 100 nM Δ^12-PGJ3 and the degranulation was followed by quantitating the release of histamine and a second marker of degranulation, hexoseaminidase.\nIn this experiment, 500,000 BCR-ABL+ LSCs were plated in a 24-well plate followed and were treated with 25 nM PGD2Me or 100 nM ZK118182 (both are agonists of DP) for 24 h. GFP^+ cells were analyzed by flow cytometry. These agonists were purchased from Cayman Chemicals, MI."}, "[3]": {"test_system": "FV-LSCs transplanted into BALB/c-Stk^−/− mice", "protocol": "Transplant of FV-LSCs into BALB/c-Stk^−/− mice: FV-LSCs were generated as described above. 2.5×10^5 FV-LSCs were transplanted into BALB/c-Stk^−/− mice by retro-orbital injection. Six weeks after transplant the mice were treated with CyPGs or vehicle control as indicated in the text.\nTreatment of Mice with PGs: Mice with FV-induced erythroleukemia or MIGR-BCR-ABL induced CML were treated on the indicated days with CyPGs. Mice were treated with a daily intraperitoneal injection of Δ^12-PGJ3 (0.01-0.1 mg/kg), 15d-PGJ2 (0.1 mg/kg), or 9,10-dihydro-15d-PGJ2 (0.1 mg/kg) for 7 days. All three compounds were formulated with hydroxypropyl-β-cyclodextrin (30% w/v; Sigma; vehicle control).\nStk^−/− mice are resistant to Friend virus infection so the leukemia developed by the transplanted mice is result of the transplanted LSCs and not FV infection. […] LSCs sorted from the spleens of FV-infected mice were transplanted into Stk^−/− mice (on a Balb/c background). After 6 weeks such mice were treated daily for 1 week with vehicle (hydroxypropyl-β-cyclodextrin), 15d-PGJ2 (0.05 mg/kg), or 9,10-dihydro-15d-PGJ2 (0.05 mg/kg) by intraperitoneal injection. The mice were sacrificed 51 days post LSC transplantation for analysis. An analysis of spleens of mice comparing splenomegaly in vehicle, 15d-PGJ2, or 9,10-dihydro-15d-PGJ2 treated transplanted mice was performed. Spleen weight compared to control (untransplanted mice) after treatment and WBC counts in the peripheral blood of the mice after treatment were examined, and a flow cytometric analysis of the spleen of untransplanted and LSC transplanted mice after treatment was performed. All data were mean±s.e.m. *p<0.05 compared to control or 9,10-dihydro-15d-PGJ2 treated groups. N=5 per group."}, "[4]": {"test_system": "FV-LSCs (M34^+Kit^+Sca1^+)", "assay": "Apoptosis of FV-LSCs treated ex vivo (annexin V, flow cytometry)", "type": "cell-based, mouse", "conditions": "25 nM, 36 h; for apoptosis of FV-LSCs: annexin V", "protocol": "On day 14 after infection, spleens were isolated and a single cell suspension of spleen cells was generated. The cells were filtered through a 70 μm sterile filter and flow-through cells were resuspended in RBC lysis buffer followed by centrifugation. Leukemia stem cells were isolated by FACS. Spleen cells were labeled with anti-Kit, Sca1 (BioLegend, San Diego, Calif.) and M34 antibodies. […] As indicated M34^+Kit^+Sca1^+ cells were cultured in Methocult media (Stem Cell Technologies Vancouver BC) M3334 supplemented with 200 ng/ml Sonic Hedgehog (Shh), 15 ng/ml bone morphogenetic protein-4 (BMP4) (both from R&D Systems Minneapolis, Minn.), and 50 ng/ml stem cell factor (SCF; Peprotech).\nThe cells were stained with annexin V-FITC and analyzed by flow cytometry. […] Means±s.e.m. *P<0.001 compared to vehicle (PBS). […] Inset: Effect of rosiglitazone on the apoptosis of LSC. Rosiglitazone (0.1-2.0 μM) was incubated with LSC in the culture media for 36 h as described earlier and the cells were subjected to annexin-V staining followed by flow cytometry. […] LSC were treated ex vivo with indicated concentrations of each compound for 36 h. Mean±s.e.m. shown *P<0.001."}, "LSCs": {"test_system": "LSCs", "assay": "Apoptosis of LSCs as summarised in the discussion (model not specified or both models)", "type": "cell-based, mouse", "conditions": "FV-induced leukemia and BCR-ABL+ retrovirus-based murine CML model"}, "p53": {"test_system": "p53", "assay": "p53 expression in FV-LSCs treated ex vivo (RT-PCR, nuclear extracts)", "type": "cell-based, mouse"}, "[5]": {"test_system": "murine erythroleukemia (MEL) cells", "assay": "MEL cell apoptosis and viability (MTT, CCK-8)", "type": "cell-based, mouse", "conditions": "anti-leukemic drugs 1 μM, nutlin 5 μM, 24 h, MTT/CCK-8", "procedure": "Cell culture. Murine erythroleukemia (MEL) cells were cultured in DMEM with 10% FBS. In order to examine the production 3-series PGs, BALB/c-derived RAW264.7 macrophage-like cells (ATCC) were cultured in DMEM containing 5% FBS, 250 nM sodium selenite, and 50 μM EPA (as BSA conjugate) for 72 h followed by stimulation with E. coli endotoxin lipopolysaccharide (LPS; Serotype 0111B4; 50 ng/ml) for 30 min. The cells were cultured in fresh DMEM for an additional 24-144 h. Cells cultured with cell culture-grade fatty acid free BSA (Sigma Aldrich) served as a control. Culture media was withdrawn at various times and analyzed for 3-series PGs as described below. Total RNA was isolated from cells or tissues using Trizol reagent as per the instructions of the supplier (Invitrogen, Carlsbad, Calif.) and cDNA was prepared using a High Capacity cDNA Reverse Transcriptase kit (Applied Biosystems, Foster City, Calif.). Semiquantitative RT-PCR for p53 and β-actin was performed with primers as described in Supplementary Methods. Nuclear and cytoplasmic protein extracts of LSCs were prepared using standard methods previously described (Vunta H et al., J Biol Chem. 2007; 282:17964-17973).\nCell viability studies. MEL cells were cultured in DMEM containing 10% FBS and treated with various commonly used anti-leukemic drugs such as daunorubicin (DNR), mitoxantrone (MIT), and cytarabine (CYT) at a final concentration […] for 24 h. […] After 24 h of drug treatment, cell proliferation was measured by MTT assay with CCK-8 kit from Dojindo Molecular Technologies, Inc. (Gaithersburg, Md.). All viability values reported are relative to untreated cells (UT) that was designated to be 100%. Results represent the mean±SEM of three independent observations.\nIn order to address whether MEL cells are resistant in general to chemotherapy agents, we tested whether MEL cells can be killed by apoptosis when treated with standard anti-leukemia drugs. Treatment with various commonly used anti-leukemic drugs such as daunorubicin (DNR), mitoxantrone (MIT), and cytarabine (CYT) at a final concentration 1 μM for 24 h. […] After 24 h of drug treatment, cell proliferation was measured by MTT assay with CCK-8 kit from Dojindo Molecular Technologies, Inc. (Gaithersburg, Md.). […] The results represent the mean±SEM of three independent observations."}}, "note": "“Also recorded” adds a separate entry of the source."}
{"smiles": "CCCCC/C=C/C=C1/C(=O)C=C[C@@H]1C/C=C\\CCCC(=O)O", "note": "[15d-PGJ2, reference compound]", "values": [{"measurement": "LSCs (Sca1+Kit+M34+) in the spleen", "setting": "[1]; 0.05 mg/kg i.p. 7 d, flow cytometry day 14 post infection", "value": "significant decrease in LSC numbers; also recorded: Identical results"}, {"measurement": "total leukocyte and reticulocyte counts", "setting": "[1]; i.p. 7 days", "value": "decreased to normal levels"}, {"measurement": "Friend virus viral replication", "setting": "[1]; mouse, in vivo", "value": "does not affect Friend virus viral replication"}, {"measurement": "CFU-FV colony formation", "setting": "[1]; spleen cells of treated mice plated without growth factors", "value": "significantly decreased the number of transformed leukemia cells"}, {"measurement": "apoptosis of Sca1+GFP+Kit+ BCR-ABL+LSC from spleen", "setting": "[2]", "value": "active; also recorded: significantly increased their apoptosis"}, {"measurement": "hematocrit, WBC counts and reticulocyte counts", "setting": "[3]; FV-induced leukemia, FIG. 3C", "value": "significantly decreased"}, {"measurement": "LSCs (M34+Sca1+Kit+) in the spleen", "setting": "[3]; flow cytometry after 1 week i.p. treatment", "value": "eradication of FV LSCs in the spleen and resolution of the diseases"}, {"measurement": "apoptosis of FV-LSCs", "setting": "[4]", "value": "able to induce apoptosis; also recorded: Responses similar to Δ^12-PGJ3"}]}
{"smiles": "CC/C=C\\C/C=C/C=C1/C(=O)C=C[C@@H]1C/C=C\\CCCC(=O)O", "note": "[15d-PGJ3, reference compound]", "values": [{"measurement": "targeting of LSCs for apoptosis", "setting": "LSCs", "value": "targeted LSCs for apoptosis"}, {"measurement": "increase in apoptosis of FV-LSCs", "setting": "[4]", "value": "~75", "unit": "%"}]}
{"smiles": "O=C(NC(NC(=S)Nc1ccc(F)c([N+](=O)[O-])c1)C(Cl)(Cl)Cl)C(c1ccccc1)c1ccccc1", "note": "(stereo not shown) [CGK-733]", "values": [{"measurement": "block of Δ^12-PGJ3-dependent p53 expression by ATM inhibitors", "setting": "p53; preincubation, then Δ^12-PGJ3", "value": "blocked the CyPG-dependent expression of p53"}]}
{"smiles": "CS(=O)(=O)c1cc(F)cc2c3c(n(Cc4ccc(Cl)cc4)c12)[C@@H](CC(=O)O)CC3", "note": "[MK0824]", "values": [{"measurement": "inhibition of Δ^12-PGJ3-induced apoptosis by DP antagonist", "setting": "[2]; antagonist 10 nM, 2 h pretreatment, then 25 nM Δ^12-PGJ3, 36 h", "value": "inhibited"}]}
{"smiles": "CCCCC[C@H](O)/C=C/[C@H]1C(=O)C[C@H](O)[C@@H]1C/C=C\\CCCC(=O)OC", "note": "[PGD2Me, 9α,15S-dihydroxy-11-oxo-prosta-5Z,13E-dien-1-oic acid, methyl ester]", "values": [{"measurement": "apoptosis of BCR-ABL+ LSCs by synthetic DP agonists (GFP+ cells)", "setting": "[2]; 25 nM PGD2Me or 100 nM ZK118182, 24 h", "value": "can induce apoptosis of LSCs"}]}
{"smiles": "CCCCC[C@H](O)/C=C/[C@H]1C(=O)C=C[C@@H]1C/C=C\\CCCC(=O)O", "note": "[PGJ2]", "values": [{"measurement": "apoptosis of FV-LSCs", "setting": "[4]", "value": "largely ineffective"}, {"measurement": "p53 expression at transcript level", "setting": "p53; 10 or 25 nM, 12 h", "value": "only a minor degree"}, {"measurement": "p53 expression after preincubation of compound with media", "setting": "p53; preincubated at 37° C. for 42 h before adding LSCs", "value": "increased expression of p53"}]}
{"smiles": "CC/C=C\\C[C@H](O)/C=C/[C@H]1C(=O)C=C[C@@H]1C/C=C\\CCCC(=O)O", "note": "[PGJ3, reference compound]", "values": [{"measurement": "targeting of LSCs for apoptosis", "setting": "LSCs", "value": "ineffective"}, {"measurement": "increase in apoptosis of FV-LSCs", "setting": "[4]", "value": 2, "unit": "fold"}]}
{"smiles": "Nc1ccn([C@@H]2O[C@H](CO)[C@@H](O)[C@@H]2O)c(=O)n1", "note": "[cytarabine]", "values": [{"measurement": "sensitivity of MEL cells to drugs", "setting": "[5]", "value": "caused significant apoptosis; also recorded: exhibited sensitivity"}]}
{"smiles": "COc1cccc2c1C(=O)c1c(O)c3c(c(O)c1C2=O)C[C@@](O)(C(C)=O)C[C@@H]3O[C@H]1C[C@H](N)[C@H](O)[C@H](C)O1", "note": "[daunorubicin]", "values": [{"measurement": "sensitivity of MEL cells to drugs", "setting": "[5]", "value": "caused significant apoptosis; also recorded: exhibited sensitivity"}]}
{"smiles": "O=C1c2c(O)ccc(O)c2C(=O)c2c(NCCNCCO)ccc(NCCNCCO)c21", "note": "[mitoxantrone]", "values": [{"measurement": "sensitivity of MEL cells to drugs", "setting": "[5]", "value": "caused significant apoptosis; also recorded: exhibited sensitivity"}]}
{"smiles": "COc1ccc(C2=NC(c3ccc(Cl)cc3)C(c3ccc(Cl)cc3)N2C(=O)N2CCNC(=O)C2)c(OC(C)C)c1", "note": "(stereo not shown) [nutlin]", "values": [{"measurement": "sensitivity of MEL cells to drugs", "setting": "[5]", "value": "not"}, {"measurement": "sensitivity of MEL cells to drugs", "setting": "[5]; listed as Nutlin", "value": "lack of activation of p53 and apoptosis"}]}
{"smiles": "CCCCC[C@H](O)C/C=C1/C(=O)C=C[C@@H]1C/C=C\\CCCC(=O)O", "note": "[Δ^12-PGJ2]", "values": [{"measurement": "apoptosis of Sca1+GFP+Kit+ BCR-ABL+LSC from spleen", "setting": "[2]", "value": "active"}, {"measurement": "apoptosis of FV-LSCs", "setting": "[4]", "value": "able to induce apoptosis; also recorded: Responses similar to Δ^12-PGJ3"}]}
